Test: Acute toxicity: hemograms and serum biochemistry
Type: in vivo, Balb/c mice
Conditions: 2.5 mg kg^−1 of drug content three times a week

COc1cccc2c1C(=O)c1c(O)c3c(c(O)c1C2=O)C[C@@](O)(/C(CO)=N/NC(=O)CCCCCN1C(=O)C=CC1=O)C[C@@H]3O[C@H]1C[C@H](N)[C@H](O)[C@H](C)O1 [aldox, aldoxorubicin]
serum creatine kinase (CK) level: increased CK level
